# Article PMC7162861, “Synthesis, cytotoxicity, pharmacokinetic profile, binding with DNA and BSA of new imidazo[1,2-a]pyrazine-benzo[d]imidazol-5-yl hybrids” (Scientific Reports, 2020)
# What was measured:
# [1] = system: A549/ATCC; assay: NCI cytotoxicity screen, Non-Small Cell Lung Cancer panel; format: cell-based; details: Homo sapiens; A549/ATCC; single dose 10 µM; negative = lethal; read-out: Percent growth inhibition
# Protocol: (§1) Cytotoxicity was performed at National Cancer Institute (NCI), Bethesda, USA as per their protocols.
# [2] = system: EXVX; assay: as above; format: cell-based; details: Homo sapiens; EXVX; single dose 10 µM; negative = lethal; read-out: Percent growth inhibition
# Protocol: as §1
# [3] = system: HOP-62; assay: as above; format: cell-based; details: Homo sapiens, single dose 10 µM, negative = lethal, read-out: Percent growth inhibition
# Protocol: as §1
# [4] = system: HOP-92; assay: as above; format: cell-based; details: Homo sapiens, single dose 10 µM, negative = lethal, read-out: Percent growth inhibition
# Protocol: as §1
# [5] = system: NCI-H460; assay: as above; format: cell-based; details: Homo sapiens, single dose 10 µM, negative = lethal, read-out: Percent growth inhibition
# Protocol: as §1
# [6] = system: NCI-522; assay: as above; format: cell-based, human; details: Homo sapiens; NCI-522; single dose 10 µM; negative = lethal; read-out: Percent growth inhibition
# Protocol: as §1
# [7] = system: NCI-H226; assay: as above; format: cell-based, human; details: Homo sapiens, single dose 10 µM, negative = lethal, read-out: Percent growth inhibition
# Protocol: as §1
# [8] = system: NCI-H23; assay: as above; format: cell-based, human; details: Homo sapiens, single dose 10 µM, negative = lethal, read-out: Percent growth inhibition
# Protocol: as §1
# [9] = system: NCI-H322M; assay: as above; format: cell-based, human; details: Homo sapiens, single dose 10 µM, negative = lethal, read-out: Percent growth inhibition
# Protocol: as §1
# [10] = system: COLO 205; assay: NCI cytotoxicity screen, Colon Cancer panel; format: cell-based; details: Homo sapiens, single dose 10 µM, negative = lethal, read-out: Percent growth inhibition
# Protocol: as §1
# [11] = system: HCT-116; assay: NCI cytotoxicity screen, Colon Cancer panel; format: cell-based; details: Homo sapiens, single dose 10 µM, negative = lethal, read-out: Percent growth inhibition
# Protocol: as §1
# [12] = system: HCT-15; assay: NCI cytotoxicity screen, Colon Cancer panel; format: cell-based; details: Homo sapiens, single dose 10 µM, negative = lethal, read-out: Percent growth inhibition
# Protocol: as §1
# [13] = system: HT29; assay: NCI cytotoxicity screen, Colon Cancer panel; format: cell-based; details: Homo sapiens, HT-29; HT29; single dose 10 µM; negative = lethal; read-out: Percent growth inhibition
# Protocol: as §1
# [14] = system: HCC-2998; assay: NCI cytotoxicity screen, Colon Cancer panel; format: cell-based, human; details: Homo sapiens; HCC-2998; single dose 10 µM; negative = lethal; read-out: Percent growth inhibition
# Protocol: as §1
# [15] = system: KM12; assay: NCI cytotoxicity screen, Colon Cancer panel; format: cell-based, human; details: Homo sapiens, single dose 10 µM, negative = lethal, read-out: Percent growth inhibition
# Protocol: as §1
# [16] = system: SW-620; assay: NCI cytotoxicity screen, Colon Cancer panel; format: cell-based, human; details: Homo sapiens, single dose 10 µM, negative = lethal, read-out: Percent growth inhibition
# Protocol: as §1
# [17] = system: LOX IMVI; assay: NCI cytotoxicity screen, Melanoma panel; format: cell-based, human; details: Homo sapiens, single dose 10 µM, negative = lethal, read-out: Percent growth inhibition
# Protocol: as §1
# [18] = system: M14; assay: NCI cytotoxicity screen, Melanoma panel; format: cell-based, human; details: Homo sapiens, single dose 10 µM, negative = lethal, read-out: Percent growth inhibition
# Protocol: as §1
# [19] = system: UACC-62; assay: NCI cytotoxicity screen, Melanoma panel; format: cell-based, human; details: Homo sapiens, single dose 10 µM, negative = lethal, read-out: Percent growth inhibition
# Protocol: as §1
# [20] = system: MALME-3M; assay: NCI cytotoxicity screen, Melanoma panel; format: cell-based; details: Homo sapiens; MALME-3M; single dose 10 µM; negative = lethal; read-out: Percent growth inhibition
# Protocol: as §1
# [21] = system: MDA-MB-435; assay: NCI cytotoxicity screen, Melanoma panel; format: cell-based; details: Homo sapiens, MDA-MB-435, read-out: Percent growth inhibition
# Protocol: as §1
# [22] = system: SK-MEL-28; assay: NCI cytotoxicity screen, Melanoma panel; format: cell-based; details: Homo sapiens, single dose 10 µM, negative = lethal, read-out: Percent growth inhibition
# Protocol: as §1
# [23] = system: SK-MEL-2; assay: NCI cytotoxicity screen, Melanoma panel; format: cell-based; details: Homo sapiens, single dose 10 µM, negative = lethal, read-out: Percent growth inhibition
# Protocol: as §1
# [24] = system: SK-MEL-5; assay: NCI cytotoxicity screen, Melanoma panel; format: cell-based; details: Homo sapiens, single dose 10 µM, negative = lethal, read-out: Percent growth inhibition
# Protocol: as §1
# [25] = system: UACC-257; assay: NCI cytotoxicity screen, Melanoma panel; format: cell-based; details: Homo sapiens, single dose 10 µM, negative = lethal, read-out: Percent growth inhibition
# Protocol: as §1
# [26] = system: IGROV1; assay: NCI cytotoxicity screen, Ovarian Cancer panel; format: cell-based; details: Homo sapiens, IGROV-1, single dose 10 µM, negative = lethal, read-out: Percent growth inhibition
# Protocol: as §1
# [27] = system: NCI/ADR-RES; assay: NCI cytotoxicity screen, Ovarian Cancer panel; format: cell-based; details: Homo sapiens, single dose 10 µM, negative = lethal, read-out: Percent growth inhibition
# Protocol: as §1
# [28] = system: OVCAR-8; assay: NCI cytotoxicity screen, Ovarian Cancer panel; format: cell-based; details: Homo sapiens, single dose 10 µM, negative = lethal, read-out: Percent growth inhibition
# Protocol: as §1
# [29] = system: SK-OV-3; assay: NCI cytotoxicity screen, Ovarian Cancer panel; format: cell-based; details: Homo sapiens, single dose 10 µM, negative = lethal, read-out: Percent growth inhibition
# Protocol: as §1
# [30] = system: 786-0; assay: NCI cytotoxicity screen, Renal Cancer panel; format: cell-based, human; details: Homo sapiens, single dose 10 µM, negative = lethal, read-out: Percent growth inhibition
# Protocol: as §1
# [31] = system: TK-10; assay: NCI cytotoxicity screen, Renal Cancer panel; format: cell-based, human; details: Homo sapiens, single dose 10 µM, negative = lethal, read-out: Percent growth inhibition
# Protocol: as §1
# [32] = system: A498; assay: NCI cytotoxicity screen, Renal Cancer panel; format: cell-based; details: Homo sapiens, single dose 10 µM, negative = lethal, read-out: Percent growth inhibition
# Protocol: as §1
# [33] = system: ACHN; assay: NCI cytotoxicity screen, Renal Cancer panel; format: cell-based; details: Homo sapiens, single dose 10 µM, negative = lethal, read-out: Percent growth inhibition
# Protocol: as §1
# [34] = system: RXF 393; assay: NCI cytotoxicity screen, Renal Cancer panel; format: cell-based; details: Homo sapiens, single dose 10 µM, negative = lethal, read-out: Percent growth inhibition
# Protocol: as §1
# [35] = system: SN12C; assay: NCI cytotoxicity screen, Renal Cancer panel; format: cell-based; details: Homo sapiens, single dose 10 µM, negative = lethal, read-out: Percent growth inhibition
# Protocol: as §1
# [36] = system: UO-31; assay: NCI cytotoxicity screen, Renal Cancer panel; format: cell-based; details: Homo sapiens, single dose 10 µM, negative = lethal, read-out: Percent growth inhibition
# Protocol: as §1
# [37] = system: BT-549; assay: NCI cytotoxicity screen, Breast Cancer panel; format: cell-based; details: Homo sapiens, single dose 10 µM, negative = lethal, read-out: Percent growth inhibition
# Protocol: as §1
# [38] = system: HS 578 T; assay: NCI cytotoxicity screen, Breast Cancer panel; format: cell-based; details: Homo sapiens; HS 578T; single dose 10 µM; negative = lethal; read-out: Percent growth inhibition
# Protocol: as §1
# [39] = system: MCF7; assay: NCI cytotoxicity screen, Breast Cancer panel; format: cell-based; details: Homo sapiens, single dose 10 µM, negative = lethal, read-out: Percent growth inhibition
# Protocol: as §1
# [40] = system: MDA-MB-231/ATCC; assay: NCI cytotoxicity screen, Breast Cancer panel; format: cell-based; details: Homo sapiens, MDA-MB-231, read-out: Percent growth inhibition
# Protocol: as §1
# [41] = system: MDA-MB-468; assay: NCI cytotoxicity screen, Breast Cancer panel; format: cell-based; details: Homo sapiens, single dose 10 µM, negative = lethal, read-out: Percent growth inhibition
# Protocol: as §1
# [42] = system: T-47D; assay: NCI cytotoxicity screen, Breast Cancer panel; format: cell-based; details: Homo sapiens, T47D, T-47D; single dose 10 µM; negative = lethal; read-out: Percent growth inhibition
# Protocol: as §1
# [43] = Experimental log P, shake-flask method; format: physicochemical; details: n-octanol/phosphate buffer pH 7.4, read-out: Exp. Log P
# Protocol: Partition coefficients or experimental log P values of all synthesized compounds (9–23, 30 and 31) were calculated using the shake-flask method. Log P values were determined using n-octanol and phosphate buffer (pH = 7.4) at 10:1 ratio of volumes. Stock solutions (10^−3 M) of compounds were prepared in DMSO. Glass vials were used to make final solutions i.e. stock solution (250 µL) and phosphate buffer (125 µL). To record the absorbance, wavelength was selected based on λmax of the respective compound. Initial absorbance (Ai) for every compound was noted consuming the stock solution in the buffer phase. Now added n-octanol to every vial and shaken well using a mechanical shaker for 50 minutes. To get separation of both phases, glass vials were centrifuged for 35 min. at 2500 rpm. Then, the layer of octanol was separated from glass vial. The final absorbance (Af) of each compound was recorded by using the buffer layer. The values of P for compounds were determined by the following equation (Eq. 8):8 P=Ai−Af/Af×Vw/Vo
# [44] = system: CAKI-1; assay: NCI cytotoxicity screen, Renal Cancer panel; format: cell-based; details: Homo sapiens; CAKI-1; single dose 10 µM; negative = lethal; read-out: Percent growth inhibition
# Protocol: as §1
structure (smiles),measurement,setting,value
"COc1ccc(-c2cn3ccnc3c(-c3ccc4c(c3)ncn4C3CCCCC3)n2)cc1 [Compound 10, 8-(1-cyclohexyl-1H-benzo[d]imidazol-5-yl)-6-(4-methoxyphenyl)imidazo[1,2-a]pyrazine]",inhibition at 10 µM,[1],7.33%
same,inhibition at 10 µM,[2],7.85%
same,inhibition at 10 µM,[3],3.33%
same,inhibition at 10 µM,[4],17.4%
same,inhibition at 10 µM,[5],2.9%
same,inhibition at 10 µM,[6],18.5%
same,inhibition at 10 µM,[7],< 1%
same,inhibition at 10 µM,[8],< 1%
same,inhibition at 10 µM,[9],< 1%
same,inhibition at 10 µM,[10],< 1%
same,inhibition at 10 µM,[11],18.6%
same,inhibition at 10 µM,[12],11.9%
same,inhibition at 10 µM,[13],< 1%
same,inhibition at 10 µM,[14],< 1%
same,inhibition at 10 µM,[15],2.27%
same,inhibition at 10 µM,[16],< 1%
same,inhibition at 10 µM,[17],7.86%
same,inhibition at 10 µM,[18],9.96%
same,inhibition at 10 µM,[19],1.25%
same,inhibition at 10 µM,[20],< 1%
same,inhibition at 10 µM,[21],6.92%
same,inhibition at 10 µM,[22],4.86%
same,inhibition at 10 µM,[23],9.88%
same,inhibition at 10 µM,[24],5.95%
same,inhibition at 10 µM,[25],< 1%
same,inhibition at 10 µM,[26],5.82%
same,inhibition at 10 µM,[27],1.93%
same,inhibition at 10 µM,[28],7.75%
same,inhibition at 10 µM,[29],5.37%
same,inhibition at 10 µM,[30],12.7%
same,inhibition at 10 µM,[31],< 1%
same,inhibition at 10 µM,[32],< 1%
same,inhibition at 10 µM,[33],10.9%
same,inhibition at 10 µM,[34],< 1%
same,inhibition at 10 µM,[35],< 1%
same,inhibition at 10 µM,[36],33.5%
same,inhibition at 10 µM,[37],8.55%
same,inhibition at 10 µM,[38],5.69%
same,inhibition at 10 µM,[39],19.7%
same,inhibition at 10 µM,[40],< 1%
same,inhibition at 10 µM,[41],< 1%
same,inhibition at 10 µM,[42],46.2%
same,logP,[43],1.44
"c1csc(-c2cn3ccnc3c(-c3ccc4c(c3)ncn4C3CCCCC3)n2)c1 [Compound 22, 8-(1-cyclohexyl-1H-benzo[d]imidazol-5-yl)-6-(thiophen-2-yl)imidazo[1,2-a]pyrazine]",inhibition at 10 µM,[1],1.63%
same,inhibition at 10 µM,[2],3.54%
same,inhibition at 10 µM,[3],0.44%
same,inhibition at 10 µM,[4],< 1%
same,inhibition at 10 µM,[5],< 1%
same,inhibition at 10 µM,[6],14.6%
same,inhibition at 10 µM,[7],< 1%
same,inhibition at 10 µM,[8],5.56%
same,inhibition at 10 µM,[9],0.45%
same,inhibition at 10 µM,[10],< 1%
same,inhibition at 10 µM,[11],< 1%
same,inhibition at 10 µM,[12],6.48%
same,inhibition at 10 µM,[13],< 1%
same,inhibition at 10 µM,[14],< 1%
same,inhibition at 10 µM,[15],6.84%
same,inhibition at 10 µM,[16],< 1%
same,inhibition at 10 µM,[17],1.01%
same,inhibition at 10 µM,[18],< 1%
same,inhibition at 10 µM,[19],0.23%
same,inhibition at 10 µM,[20],< 1%
same,inhibition at 10 µM,[21],< 1%
same,inhibition at 10 µM,[22],< 1%
same,inhibition at 10 µM,[23],13.1%
same,inhibition at 10 µM,[24],1.16%
same,inhibition at 10 µM,[25],< 1%
same,inhibition at 10 µM,[26],< 1%
same,inhibition at 10 µM,[27],6.79%
same,inhibition at 10 µM,[28],< 1%
same,inhibition at 10 µM,[29],< 1%
same,inhibition at 10 µM,[30],0.59%
same,inhibition at 10 µM,[31],< 1%
same,inhibition at 10 µM,[33],< 1%
same,inhibition at 10 µM,[44],< 1%
same,inhibition at 10 µM,[34],< 1%
same,inhibition at 10 µM,[35],< 1%
same,inhibition at 10 µM,[36],16.4%
same,inhibition at 10 µM,[37],< 1%
same,inhibition at 10 µM,[38],< 1%
same,inhibition at 10 µM,[39],34%
same,inhibition at 10 µM,[40],7.47%
same,inhibition at 10 µM,[41],28.3%
same,inhibition at 10 µM,[42],37.3%
same,logP,[43],1.37
